Test results: BindingDB's records for doi:10.1016/s0960-894x(98)00444-2 (Wayne State University, 1999)

Biological target: Prothrombin (Homo sapiens, UniProt P00734)
Test: ChEBML_216950
Protocol: Dissociation constant was evaluated by competitive inhibition of alpha-thrombin using the method of Dixon enzyme assay.

Ki: 170 µM
Compound: C1=[N+]2c3ccccc3C=[N+]3c4ccccc4C=[N+]4c5ccccc5C[N](c5ccccc51)[Pd]234 (stereo unspecified) [Palladium analogue]
